The values below come from a melting point compilation (Tetko et al.; mined from patent text by program, amines drawn as free bases though some values may be those of a salt).

Structures are written as SMILES.

`O=C(Nc1ccccc1F)N1CCc2cc(S(=O)(=O)N3CCN(c4cccc(Cl)c4)CC3)ccc21` returned a melting point of 174 to 175 °C.

In turn, `Nc1nc(SCC2CC2)c2ncn(C3C=CC(CO)C3)c2n1` (stereo not drawn) had a melting point of 125 to 127 °C.

The molecule `COc1cccc(CC(=O)N2CCN(c3cccc(C(F)(F)F)c3)CC2)c1` yielded a melting point of 99 to 101 °C.

On to `O=c1c(C(O)c2ccc(Cl)cc2)c(Cl)nc2n1CCS2` (stereo not drawn), for which the melting point is 175 to 177 °C.

The molecule `CCc1nnc2c(Cl)nc3ccccc3n12` came in with a melting point of 158 to 160 °C.

As to `COc1nc(C)c(C)nc1N(C)C(=O)N1CCN(c2cc(C)cc(C)c2)CC1`, the melting point was 94 to 96 °C.

On to `NC(=O)NC(Cc1c[nH]c2ccccc12)C(=O)NCc1cc(C(F)(F)F)cc(C(F)(F)F)c1` (stereo not drawn), for which the melting point was 210 to 212 °C.

Molecule `COC(=O)NC1Cc2ccc([N+](=O)[O-])cc2C1O` (stereo not drawn) displayed a melting point of 201 to 203 °C.

On to `CNC(=O)NS(=O)(=O)c1cc2c(cc1OC)OCCC2CNC(=O)c1cc(Cl)ccc1OC` (single isomer, unassigned; (+)), for which the melting point was in the range of 147 to 148 °C.

Turning to `COc1cc2c(Nc3ccc(Cl)cc3F)ncnc2cc1OCCOc1cccnc1`, the melting point fell in the range of 188 to 190 °C.

Consider `CN(C)CCSc1cc(NC(=O)OC(C)(C)C)c(N)cc1C#Cc1ccccc1`, for which the melting point is 115 to 117 °C.

As to `Cc1ncn(Cc2ccc(N)cc2C(F)(F)F)c1C`, the melting point was in the range of 185 to 186 °C.

`CSC(=NCCSCc1ccccn1)NC#N` returned a melting point of 85 to 88 °C.

For `CC(C)(CCCC(=O)O)c1ccc2c(c1)C(=O)c1cc(C(C)(C)CCCC(=O)O)ccc1C2=O`, the melting point lay in the range of 145 to 147 °C.

In turn, `O=[N+]([O-])c1ccc(NS(=O)(=O)c2ccc(Cl)c(Cl)c2)c(Cl)c1` yielded a melting point of 199 to 201 °C.

With `Nc1cccc(Oc2ccc(Cl)nn2)c1`, the melting point fell in the range of 76 to 77 °C.

`CC(C)(C)C(=O)OCN1C(=O)CC2(C1=O)C(=O)N(Cc1ccc(Cl)c(Cl)c1)c1ccccc12` (stereo not drawn) returned a melting point of 134 to 135 °C.

In the case of `O=c1c2c[nH]c3c(c-2nn1-c1ccc(Cl)cc1)CN(CCc1ccccc1)CC3`, the melting point lay in the range of 256 to 259 °C.

`CC(C)NCc1cccc(Cn2ccc(OCc3ccc(F)cc3F)c(Br)c2=O)c1` yielded a melting point of 109 to 110 °C.

`COc1ccc(S(=O)(=O)Nc2ccccc2NC(=O)c2ccncc2C)cc1` yielded a melting point of 194 to 195 °C.

Molecule `COC(=O)CSC1c2ccccc2C=Cc2ccccc21` yielded a melting point of 74 to 76 °C.

`OC(Cn1ccnc1)(c1ccccc1)c1ccc(-c2ccccc2)cc1` (stereo not drawn) displayed a melting point of 224 °C.

`Cc1noc(NS(=O)(=O)c2ccccc2-c2ccc(-c3ncco3)cc2CCN(C)C(=O)Cc2ccccc2)c1C` gave a melting point of 98 to 106 °C.

The molecule `COC(=O)[C@@H]1C[C@H](OC(=O)c2ccc([N+](=O)[O-])cc2)C[C@H]1C(=O)OCc1ccccc1` gave a melting point of 79.5 °C.

In turn, `CCC(=O)N(CC)c1cccc(-c2ccnc3c(C(=O)c4ccco4)cnn23)c1` had a melting point of 165 to 167 °C.

In turn, `COc1ccc(N2CCN(c3ccc([N+](=O)[O-])cn3)CC2)cc1` displayed a melting point of 165 to 166 °C.

`O=Cc1cccc(-c2cc3nccnc3[nH]2)c1` had a melting point of 268 to 270 °C.

For `Cc1cccc(-c2c3c(cc4ccc(O)cc24)-c2ccc(O)cc2CO3)c1`, the melting point lay within 219 to 222 °C.

In turn, `CCN1C(=O)NC(c2ccc3ccccc3c2)c2cc3c(cc21)OCO3` (stereo not drawn) came in with a melting point of 193 to 195 °C.

Molecule `CC(C)(C)OC(=O)NC1CCN(c2ccc(C#N)cc2)CC1` returned a melting point of 188 to 189 °C.

The molecule `CCN(Cc1cccnc1)C(=S)NC` registered a melting point of 122 to 123 °C.

The molecule `CCCCCCCCCCCCCCCc1ccc(C(=O)O)c(O)c1` showed a melting point of 96 to 97 °C.

`CCN1c2ncc(CSc3ccncc3)cc2C(=O)N(C)c2ccc(Cl)nc21`: the melting point was 140 to 142 °C.
